The results in this text go back to patent US5162317A, “Pyridinium salt and pharmacological composition containing the same” (Esai Co., Ltd., priority 1988, dated 1992).

What is called pIC50 is the negative decadic logarithm of the IC50, by convention in mol/L.

pIC50: −log10 of the molar value. Where only a bound is given, the exact number is not on record here.

The experiment deals with T1, H^+ --K^+ ATPase (Sus scrofa, UniProt P19156).
T1 construct: prepared from the fundus ventriculi gland of fresh swine gastric mucosa; from tissue; host or cells: swine gastric mucosa, fundus ventriculi gland (modified method of Saccomani et al. 1977)
T1 sequence (P19156 2-1034 limits assumed): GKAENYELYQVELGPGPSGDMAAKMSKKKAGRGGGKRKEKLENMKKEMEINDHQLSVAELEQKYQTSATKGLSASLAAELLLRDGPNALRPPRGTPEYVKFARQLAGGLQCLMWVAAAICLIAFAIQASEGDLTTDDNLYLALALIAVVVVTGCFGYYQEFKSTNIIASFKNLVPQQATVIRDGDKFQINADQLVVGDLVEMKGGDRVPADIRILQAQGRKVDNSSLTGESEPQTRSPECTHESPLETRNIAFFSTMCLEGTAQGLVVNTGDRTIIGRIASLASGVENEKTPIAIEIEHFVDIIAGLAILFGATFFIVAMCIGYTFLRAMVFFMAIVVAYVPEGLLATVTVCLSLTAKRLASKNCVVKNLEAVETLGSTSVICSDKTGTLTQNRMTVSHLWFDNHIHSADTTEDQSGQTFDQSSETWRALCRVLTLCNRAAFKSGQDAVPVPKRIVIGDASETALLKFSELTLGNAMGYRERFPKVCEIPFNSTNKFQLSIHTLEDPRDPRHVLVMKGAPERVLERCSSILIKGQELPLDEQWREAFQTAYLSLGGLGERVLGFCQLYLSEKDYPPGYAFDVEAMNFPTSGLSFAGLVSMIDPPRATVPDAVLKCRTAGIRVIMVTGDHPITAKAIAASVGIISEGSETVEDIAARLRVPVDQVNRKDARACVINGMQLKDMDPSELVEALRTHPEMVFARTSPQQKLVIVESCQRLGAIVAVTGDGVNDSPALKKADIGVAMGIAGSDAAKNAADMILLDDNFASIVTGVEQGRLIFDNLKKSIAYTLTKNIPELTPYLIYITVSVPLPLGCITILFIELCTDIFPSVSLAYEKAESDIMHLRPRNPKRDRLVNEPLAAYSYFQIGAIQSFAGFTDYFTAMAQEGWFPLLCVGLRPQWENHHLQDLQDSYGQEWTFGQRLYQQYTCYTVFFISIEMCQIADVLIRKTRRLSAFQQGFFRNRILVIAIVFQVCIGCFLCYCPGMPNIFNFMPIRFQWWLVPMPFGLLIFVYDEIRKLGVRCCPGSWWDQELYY
T1 sequence (P18434 whole entry partner): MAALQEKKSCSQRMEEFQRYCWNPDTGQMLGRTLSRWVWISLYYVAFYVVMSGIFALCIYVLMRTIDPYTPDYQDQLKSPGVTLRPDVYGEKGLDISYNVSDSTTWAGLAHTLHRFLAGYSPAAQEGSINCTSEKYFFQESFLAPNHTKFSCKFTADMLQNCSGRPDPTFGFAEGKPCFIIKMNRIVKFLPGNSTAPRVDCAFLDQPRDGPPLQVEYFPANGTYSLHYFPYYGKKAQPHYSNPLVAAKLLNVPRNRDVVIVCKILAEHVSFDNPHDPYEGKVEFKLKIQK
Put plainly: Inhibition effect on H^+ --K^+ ATPase activity. The following applies: H^+ --K^+ ATPase from fresh swine gastric mucosa, 10 μg protein/ml, pH 7.40, 37° C., 30 minutes incubation; compound dissolved in methanol. The format is biochemical. The procedure:
Inhibition effect on H^+ --K^+ ATPase activity
(1) Preparation of H^+ --K+ATPase
The enzyme H^+ --K+ATPase was prepared from the fundus ventriculi gland of fresh swine gastric mucosa by a modified method of Saccomani et al. (Biochem. and Biophys. Acta., 464, 313 (1977)).
(2) Determination of H^+ --K^+ ATPase activity
Various concentrations of the compounds of the present invention were incubated together with 10 μg protein/ml of the H^+ --K^+ ATPase in a 40 mM Tris HCl buffer (pH 7.40) at 37° C. for 30 minutes. Then 15 mM KCl was added thereto. Ten minutes thereafter, an ATPase reaction between 3 mM of MgCl2 and ATP was started. Ten minutes thereafter, the liberated inorganic phosphoric acid was determined according to Yoda and Hokin's method (cf. Biochem. Biophys. Res., Com., 40, 880 (1970)).
The test compound was 3-(3-methoxy)propoxy-4-methyl-5H-pyrido[1'.2':4.5][1.2.4.]thiazino[2.3-a]- benzimidazol-13-ium tetrafluoroborate (the compound of Example 1). This compound was dissolved in methanol prior to the test.
The inhibition effect (%) was calculated by dividing the difference between the data of the test group and that of the control group, to which solvent was added exclusively, by the data of the control group.
(1) Preparation of H^+ --K^+ ATPase
The enzyme H^+ --K^+ ATPase was prepared from the fundus ventriculi gland of fresh swine gastric mucosa by a modified method of Saccomani et al. (Biochem. and Biophys. Acta., 464, 313 (1977)).
Various concentrations of the compounds of the present invention were incubated together with 10 μg protein/ml of the H+--K^+ ATPase in a 40 mM Tris HCl buffer (pH 7.40) at 37° C. for 30 minutes. Then 15 mM KCl was added thereto. Ten minutes thereafter, an ATPase reaction between 3 mM of MgCl and ATP was started. Ten minutes thereafter, the liberated inorganic phosphoric acid was determined according to Yoda and Hokin's method (cf. Biochem. Biophys. Res., Com., 40, 880 (1970)).
The test compound was 2-[2-(ethyldithiomethyl)4-(3-methoxy)propoxy-3-methyl-1-pyridinio)benzimidazolide (the compound of Example 1). […]
In turn, `COCCCOc1cc[n+]2c(c1C)CSn1c-2nc2ccccc21` [Example 1, 3-(3-Methoxy)propoxy-4-methyl-5H-pyrido[1'.2':4.5][1.2.4]thiaziano[2.3-a]benzimidazol-13-ium tetrafluoroborate] had a pIC50 of 6.36.
Turning to `CCSSCc1c(C)c(OCCCOC)cc[n+]1-c1nc2ccccc2[n-]1` [Example 12, 2-[2-(Ethyldithiomethyl)-4-(3-methoxy)propoxy-3-methyl-1pyridinio]benzimidazolide], the pIC50 was under 5.00.
The result for `COc1ccc2[nH]c([S+]([O-])Cc3ncc(C)c(OC)c3C)nc2c1` (stereo not drawn) [Omeprazole, reference compound] reads 4.96.
